Reference: article PMC4503722, “Novel Phenotypic Outcomes Identified for a Public Collection of Approved Drugs from a Publicly Accessible Panel of Assays” (PLoS ONE, 2015)
Read-outs that look alike come from different tables or passages of the source.

Assays:
[1] = test system: endothelial tube formation in co-cultures of ECFCs and ADSCs treated with VEGF; experiment: cells; assay type: cell-based, human; conditions: for IC50: read-out: VEGF_ADSC\ECFC Angio CD31 TubeArea summarized IC50
HeLa cells = experiment: cells; assay type: cell-based;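 for Hela CellCycMod PI 4N summarized IC50: value tracks stimulation of 4N DNA content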
[2] = test system: ECFC/ADSC co-culture cell nuclei number; conditions: for IC50: read-out: VEGF_ADSC\ECFC Angio Hoechst NucArea summarized IC50
[3] = assay number 14, 2N, read-out: Hela CellCycMod PI 2N summarized IC50
[4] = assay number 15, S phase, read-out: Hela CellCycMod PI S Phase summarized IC50
[5] = assay number 16, 4N, read-out: Hela CellCycMod PI 4N summarized IC50
[6] = assay number 17, MI, read-out: Hela CellCycMod PI MI summarized IC50
[7] = assay number 18, cell number, read-out: Hela CellCycMod PI Cell Number summarized IC50

Compound	VEGF_ADSC\ECFC Angio CD31 TubeArea IC50/EC50 [1]	Hela CellCycMod PI 2N IC50/EC50 (HeLa cells; assay number 14, 2N)	Hela CellCycMod PI S Phase IC50/EC50 (HeLa cells; assay number 15, S phase)	Hela CellCycMod PI 4N IC50/EC50 (HeLa cells; assay number 16, 4N)	Hela CellCycMod PI MI IC50/EC50 (HeLa cells; assay number 17, MI)	VEGF_ADSC\ECFC Angio Hoechst NucArea IC50/EC50 [2]	further results
COCCOC(=O)C1=C(C)NC(C)=C(C(=O)OC/C=C/c2ccccc2)C1c1cccc([N+](=O)[O-])c1 (stereo not drawn) [NCGC00162150-04]	6.4204 µM	> 10 µM	> 10 µM	> 10 µM	> 10 µM	> 10 µM	Hela CellCycMod PI Cell Number IC50/EC50 (HeLa cells; assay number 18, cell number): > 10 µM
CCCCCCCCCCCC(=O)[O][Sn]([CH2]CCC)([CH2]CCC)[O]C(=O)CCCCCCCCCCC [NCGC00166115-02]							IC50 [1]: 2.01 µM; IC50 (HeLa cells; [3]): > 10 µM; IC50 (HeLa cells; [4]): > 10 µM; IC50 (HeLa cells; [5]): > 10 µM; IC50 (HeLa cells; [6]): > 10 µM; IC50 (HeLa cells; [7]): > 10 µM; IC50 [2]: > 10 µM
C[C@]12CC[C@@H]3c4ccc(O)cc4CC[C@H]3[C@@H]1CC[C@@H]2OC(=O)CCC1CCCC1 [NCGC00166134-02]	6.3667 µM	> 10 µM	> 10 µM	> 10 µM	> 10 µM	> 10 µM	Hela CellCycMod PI Cell Number IC50/EC50 (HeLa cells; assay number 18, cell number): > 10 µM
CCCCCCC[N+](CC)(CC)CCCCc1ccc(Cl)cc1.Cc1ccc(S(=O)(=O)[O-])cc1 [NCGC00168464-04]							IC50/EC50, VEGF_ADSC\ECFC Angio CD31 TubeArea (assay number 2) [1]: 6.3375 µM; IC50/EC50, Hela CellCycMod PI 2N (assay number 14) (HeLa cells; 2N): > 10 µM; IC50/EC50, Hela CellCycMod PI 4N (assay number 16) (HeLa cells; 4N): > 10 µM; IC50/EC50, Hela CellCycMod PI Cell Number (assay number 18) (HeLa cells): > 10 µM; IC50/EC50, Hela CellCycMod PI MI (assay number 17) (HeLa cells; MI): > 10 µM; IC50/EC50, VEGF_ADSC\ECFC Angio Hoechst NucArea (assay number 3) [2]: > 10 µM
CC(=O)N(O)CCCCCNC(=O)CCC(=O)N(O)CCCCCNC(=O)CCC(=O)N(O)CCCCCN [NCGC00178802-06]							IC50/EC50, VEGF_ADSC\ECFC Angio CD31 TubeArea (assay number 2) [1]: 4.5338 µM; IC50/EC50, Hela CellCycMod PI 2N (assay number 14) (HeLa cells; 2N): > 10 µM; IC50/EC50, Hela CellCycMod PI 4N (assay number 16) (HeLa cells; 4N): > 10 µM; IC50/EC50, Hela CellCycMod PI Cell Number (assay number 18) (HeLa cells): > 10 µM; IC50/EC50, Hela CellCycMod PI MI (assay number 17) (HeLa cells; MI): > 10 µM; IC50/EC50, Hela CellCycMod PI S Phase (assay number 15) (HeLa cells; S Phase): > 10 µM; IC50/EC50, VEGF_ADSC\ECFC Angio Hoechst NucArea (assay number 3) [2]: > 10 µM
C[C@@H]1C[C@H]2[C@@H]3CCC4=CC(=O)C=C[C@]4(C)[C@@]3(Cl)[C@@H](O)C[C@]2(C)[C@@]1(OC(=O)c1ccco1)C(=O)CCl [NCGC00179578-03]	4.9886 µM	> 10 µM	> 10 µM	> 10 µM	> 10 µM	> 10 µM	
O=c1[nH]c(=O)n([C@H]2C[C@H](O)[C@@H](CO)O2)cc1I [NCGC00179673-03]							IC50 [1]: 0.681 µM; IC50 (HeLa cells; [3]): > 10 µM; IC50 (HeLa cells; [4]): > 10 µM; IC50 (HeLa cells; [5]): > 10 µM; IC50 (HeLa cells; [6]): > 10 µM; IC50 (HeLa cells; [7]): > 10 µM; IC50 [2]: > 10 µM
Clc1ccc(Nc2nnc(Cc3ccncc3)c3ccccc23)cc1 [NCGC00181350-03]	0.1109 µM	> 10 µM	> 10 µM	> 10 µM	> 10 µM	> 10 µM	Hela CellCycMod PI Cell Number IC50/EC50 (HeLa cells; assay number 18, cell number): > 10 µM
CCOC(=O)[C@H](CCc1ccccc1)N[C@@H](C)C(=O)N1Cc2cc(OC)c(OC)cc2C[C@H]1C(=O)O.Cl [NCGC00263546-01]	> 10 µM					> 10 µM	
COc1cccc2c1C(=O)c1c(O)c3c(c(O)c1C2=O)C[C@@](O)(C(=O)CO)C[C@@H]3O[C@H]1C[C@H](N)[C@H](O)[C@H](C)O1.Cl [NCGC00263918-03]	0.0429 µM					0.114 µM	
CC(=O)O[C@H]1C[C@H](O[C@H]2[C@@H](O)C[C@H](O[C@@H]3[C@@H](O)C[C@H](O[C@H]4CC[C@@]5(C)[C@H](CC[C@@H]6[C@H]5C[C@@H](O)[C@]5(C)[C@@H](C7=CC(=O)OC7)CC[C@]65O)C4)O[C@@H]3C)O[C@@H]2C)O[C@H](C)[C@H]1O[C@@H]1O[C@H](CO)[C@@H](O)[C@H](O)[C@@H]1O [NCGC00344547-01]	0.0702 µM					0.2792 µM	
